Data on 21 molecules can be found in PubChem BioAssay (NCI).

Among the test systems are LXFL 529 NSCLC; DMS 114 small cell lung; DMS 273 small cell lung; UACC-62 melanoma; SF-268 CNS; XF 498 CNS; K-562 leukemia; M19-MEL melanoma; HOP-18 NSCLC; KM12 colon; DLD-1 colon; NCI-H460 lung; KM20L2 colon; SNB-78 CNS.
What all share (assay): NCI-60 cell line screen, 48 h

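Five concentrations, 48 hours, 96-well plates. TGI is the concentration that stops growth completely.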

Take `O=C1C=CC(=O)c2cc(Sc3ccccc3)c(=O)c(Sc3ccccc3)cc21`: the TGI in the assay on LXFL 529 NSCLC was 70.3 µM; with DMS 114 small cell lung, 53.7 µM; with DMS 273 small cell lung, above 100 µM; in the assay with UACC-62 melanoma, 81.6 µM; in the assay on SF-268 CNS, above 100 µM; with XF 498 CNS it was above 100 µM. Also, the TGI in the assay with K-562 leukemia is 61.9 µM; in the assay with M19-MEL melanoma, above 100 µM; with HOP-18 NSCLC, above 100 µM; in the assay with KM12 colon, above 100 µM; with DLD-1 colon, above 100 µM; in the assay with NCI-H460 lung, above 100 µM. The molecule further displayed a TGI with KM20L2 colon above 100 µM.
For the molecule `CCOC(=O)c1cn(CC)c2ccc3ccsc3c2c1=O`, the TGI with UACC-62 melanoma, in the assay with SF-268 CNS, with K-562 leukemia, in the assay with KM12 colon and with NCI-H460 lung was above 100 µM throughout.
On to `CC(C)OC(=O)NNc1cccc(Cl)c1`, for which the TGI in the assay with UACC-62 melanoma, with SF-268 CNS, in the assay with K-562 leukemia, in the assay with KM12 colon and in the assay with NCI-H460 lung was above 100 µM in each case.
As for `Nc1nc(Br)nc2ncn(C3CC(O)C(CO)O3)c12` (stereo not drawn), the TGI with UACC-62 melanoma, in the assay on SF-268 CNS, in the assay on K-562 leukemia, in the assay on KM12 colon and with NCI-H460 lung was above 100 µM in each case.
In the case of `CC1CCC2CC1NC(=O)CCOCCC(=O)NC2(C)C` (stereo not drawn), the TGI in the assay with UACC-62 melanoma, in the assay on SF-268 CNS, with K-562 leukemia, in the assay with KM12 colon and in the assay with NCI-H460 lung was above 100 µM each time.
For `COc1cc2c(cc1O)Cc1c-2[n+](C)cc2cc(OC)c(OC)cc12`, the TGI with UACC-62 melanoma was above 77.9 µM; with SF-268 CNS, above 100 µM; in the assay on K-562 leukemia it was above 100 µM; in the assay on KM12 colon it was above 100 µM; in the assay with NCI-H460 lung it was above 100 µM.
Turning to `COc1ccc(NS(=O)c2c(C)cc(C)cc2C)cc1` (stereo not drawn), the TGI in the assay with UACC-62 melanoma is above 100 µM; in the assay with SF-268 CNS, above 100 µM; in the assay on K-562 leukemia it was above 100 µM; with KM12 colon, 98.8 µM; with NCI-H460 lung, above 100 µM.
For `Cc1ccc(S(=O)(=O)ON2C(=O)c3c(N)c(C#N)c(-c4ccccc4)c(-c4ccccc4)c3C2=O)cc1`, the TGI in the assay on UACC-62 melanoma is 33.7 µM; in the assay on SF-268 CNS, above 100 µM; with K-562 leukemia, above 100 µM; in the assay on KM12 colon, above 100 µM; in the assay on NCI-H460 lung it was above 100 µM.
For the molecule `Oc1c(Cl)c(Cl)c(O)c(CCNc2nccs2)c1Cl`, the TGI with UACC-62 melanoma was 40.5 µM; with SF-268 CNS it was 36.1 µM; in the assay on K-562 leukemia it was above 100 µM; in the assay on KM12 colon it was 35.8 µM; in the assay with NCI-H460 lung it was 41.1 µM.
The corresponding values for `COc1ccccc1NC(=O)C(=O)Cc1cnc2ccccc2n1` are above 100 µM, above 100 µM, above 100 µM, above 100 µM and above 100 µM.
The corresponding values for `COC(=O)[C@H](COC(C)(C)C)NC(=O)N[C@H](C)c1ccccc1` are above 100 µM, above 100 µM, above 100 µM, above 100 µM and above 100 µM.
As to `CC1=NC=C(O)c2ccccc2O1`, the TGI in the assay with LXFL 529 NSCLC, in the assay with DMS 114 small cell lung, in the assay on DMS 273 small cell lung, in the assay on UACC-62 melanoma, in the assay with SF-268 CNS and in the assay on K-562 leukemia was above 100 µM throughout. For the same molecule, the TGI with M19-MEL melanoma, in the assay with KM12 colon, with SNB-78 CNS, in the assay on DLD-1 colon, with NCI-H460 lung and in the assay on KM20L2 colon was above 100 µM throughout.
As to `O=C1CCCCC1C(O)(C(F)(F)F)C(F)(F)Cl` (stereo not drawn), the TGI in the assay on UACC-62 melanoma, in the assay on SF-268 CNS, with K-562 leukemia, with KM12 colon and in the assay on NCI-H460 lung was above 10 µM each time.
With `O=C(O)C1=CN(c2ccncc2)C(c2ccco2)=CC1c1ccccc1[N+](=O)[O-]` (stereo not drawn), the TGI in the assay with UACC-62 melanoma is 33.6 µM; in the assay with SF-268 CNS, 25.9 µM; in the assay on K-562 leukemia, above 100 µM; with KM12 colon it was 3.4 µM; in the assay on NCI-H460 lung it was 36.3 µM.
On to `CC1(C)SCc2nc3ccccc3n21`, for which the TGI with UACC-62 melanoma, with SF-268 CNS, with K-562 leukemia, in the assay with KM12 colon and in the assay on NCI-H460 lung was above 100 µM in each case.
As to `C=CC(=O)NCNC(=O)C=C`, the TGI with LXFL 529 NSCLC, in the assay with DMS 114 small cell lung, in the assay on DMS 273 small cell lung, in the assay on UACC-62 melanoma, in the assay on SF-268 CNS and in the assay with XF 498 CNS was above 100 µM each time. The TGI in the assay on K-562 leukemia, in the assay on M19-MEL melanoma, with HOP-18 NSCLC, in the assay on KM12 colon, in the assay with DLD-1 colon and in the assay on NCI-H460 lung was above 100 µM each time. In the assay on KM20L2 colon, this molecule came in with a TGI above 100 µM.
Regarding `CC(=O)N=c1ccc2nc(N)nn(O)c-2c1`, the TGI with UACC-62 melanoma, with SF-268 CNS, with K-562 leukemia, with KM12 colon and in the assay on NCI-H460 lung was above 100 µM throughout.
`Cc1cccc2c1c(=O)c1c(O)cc3c(c1n2C)C=CC(C)(C)O3`: the TGI with UACC-62 melanoma, in the assay on SF-268 CNS, with K-562 leukemia, with KM12 colon and in the assay on NCI-H460 lung was above 100 µM throughout.
As for `O=C(/C=C/c1ccc(O)c(O)c1)NC(COC(=O)/C=C/c1ccc(O)c(O)c1)C(=O)O` (stereo not drawn), the TGI in the assay on UACC-62 melanoma, with SF-268 CNS, in the assay on K-562 leukemia, with KM12 colon and in the assay on NCI-H460 lung was above 100 µM each time.
For the molecule `COc1ccccc1N1C(=O)CSC1c1cc(OC)c(OC)c(OC)c1` (stereo not drawn), the TGI in the assay on UACC-62 melanoma was above 66.1 µM; with SF-268 CNS, above 100 µM; in the assay on K-562 leukemia, above 100 µM; with KM12 colon, above 100 µM; in the assay with NCI-H460 lung it was above 100 µM.
For `O=C1CCCC2=C1CC1=C(CCCC1=O)N2c1ccc([N+](=O)[O-])cc1`, the TGI with UACC-62 melanoma, with SF-268 CNS, in the assay with K-562 leukemia, with KM12 colon and with NCI-H460 lung was above 100 µM in each case.
